# Measurements reported in PMC9577195, “Pharmacokinetics, bioavailability, and plasma protein binding study of glytrexate, a novel multitarget antifolate” (Frontiers in Pharmacology, 2022).
# “And” between values parts separate entries of the source, which are not always exact repeats. Equal values may be shown once. “Also recorded” adds a separate entry of the source. Read-outs that look alike come from different tables or passages of the source.
# Assays:
# [1] = Stability on incubation in artificial gastrointestinal fluids at 37°C; format: in vitro ADME; settings: up to 3 h, 100 μg/ml
# Experimental: Blank artificial gastric fluid: hydrochloric acid (2.75 mol/L, 16.4 ml) was diluted with 800 ml of water, adjusted to the pH 1.3 with 0.1 mol/L hydrochloric acid solution, diluted with water and diluted to 1000 ml.
# Artificial gastric fluid: hydrochloric acid (2.75 mol/L, 16.4 ml) was diluted with 800 ml of water, and then 10 g of pepsin was added and shaken well until dissolved. The pH was adjusted to 1.3 with 0.1 mol/L hydrochloric acid solution, and then the artificial gastric fluid solution was diluted with water to 1000 ml.
# Blank artificial intestinal fluid: potassium dihydrogen phosphate (6.8 g) was diluted with 500 ml of water, and shaken until dissolved. The pH was adjusted to 6.8 with 0.1 mol/L sodium hydroxide solution, and the solution was diluted with water to 1000 ml. […]
# The test tube containing the drug concentration was incubated in a constant temperature water bath at 37°C. Each sample was obtained at 0, 0.5, 1.0, 1.5, 2.0, and 3.0 h, and the drug concentration was measured. […]
# Fifty microliters of the above solution was accurately drawn at different incubation time points, and 155 μl of ice-cold methanol (1% formic acid) and 5 μl of IS solution were added. […] An appropriate amount of the supernatant was placed into the sample vial, and analyzed. […]
# All samples were analyzed using the established LC‒MS/MS method, and MultiQuant 3.0 software was used for data processing. […]
# [2] = Stability on incubation in human plasma at 37°C; format: in vitro ADME; settings: up to 3 h, 1 μg/ml
# Experimental: The test tube containing the drug concentration was incubated in a constant temperature water bath at 37°C. Each sample was obtained at 0, 0.5, 1.0, 1.5, 2.0, and 3.0 h, and the drug concentration was measured.
# Fifty microliters of the above solution was accurately drawn at different incubation time points, and 155 μl of ice-cold methanol (1% formic acid) and 5 μl of IS solution were added. The mixture was vortexed for 60 s and centrifuged at 14,000 rpm for 10 min. Then, 165 μl of supernatant was transferred to a new tube and evaporated to dryness under a gentle stream of nitrogen at room temperature. The residue was dissolved in 50 μl 20% methanol (1% formic acid), vortexed for 60 s and centrifuged at 14,000 rpm for 10 min. An appropriate amount of the supernatant was placed into the sample vial, and analyzed. Each experiment was repeated 3 times.
# The plasma sample concentration was 1 μg/ml, and the concentration of the other samples was 100 μg/ml.
# All samples were analyzed using the established LC‒MS/MS method, and MultiQuant 3.0 software was used for data processing. The glytrexate concentration at each time point was calculated, the remaining percentage was calculated, and the concentration change trend was analyzed.
# [3] = Pharmacokinetics and bioavailability in rats after single oral and intravenous doses; format: in vivo, Sprague-Dawley rats; settings: rat; for AUC(0-inf) / Cmax / half-life / AUC / MRT last / bioavailability / CL/F / Tmax: male, Sprague-Dawley, plasma; for AUC: read-out: AUC0-tn; for MRT last: read-out: MRT0-t; for CL/F / Tmax: po
# Experimental: Pharmacokinetic and bioavailability studies were carried out in twenty-four male Sprague–Dawley rats. The rats were randomly divided into four groups (n = 6). All of them were fasted for 12 h before administration and were allowed to drink freely. Approximately 300 μl of blood was collected from the posterior canthus venous plexus of each rat into heparinized tubes at 0.1, 0.16, 0.25, 0.5, 1, 2, 4, 8, 12, and 24 h after a single oral administration (i.g.) (12.5, 25, and 50 mg/kg) or at 0.03 h, 0.08, 0.25, 0.5, 1, 2, 4, 6, 8, 12, and 24 h after a single i.v. injection (2 mg/kg). The blood samples were processed to obtain the plasma via centrifugation at 3500 rpm for 10 min and then stored at −80°C until LC–MS/MS analysis.
# The plasma samples obtained were processed using the method described in Section 2.4 and then analyzed using the established LC–MS/MS method. The data were processed using MultiQuant 3.0 software. According to the results of the blood drug concentration measurement in rats, the noncompartmental model in DAS 3.2.8 software was used to calculate the corresponding pharmacokinetic parameters, including peak time (Tmax), elimination half-life (T1/2), area under the drug-time curve (AUC0-t, AUC0-∞), maximum plasma concentration (Cmax), apparent volume of distribution (Vz/F), clearance rate (Clz/F), and average residence time (MRT0-t). GraphPad Prism 8 software was used to construct the trend chart of the changes in various parameters in plasma samples based on the measurements to analyze the possible pharmacokinetic characteristics of glytrexate.
# If glytrexate has linear kinetic characteristics, the absolute bioavailability can be calculated according to the bioavailability formula, Fabs=(AUCT·Div)/(AUCiv·DT) × 100%, where AUC represents the area under the plasma concentration-time curve. The subscripts T and iv represent oral and intravenous injection, respectively, and D represents the administered dose. The data obtained in the study are expressed as the mean values plus or minus the standard deviation.
# [4] = system: KB tumor cells; parameters: method as in Xing et al., 2017; settings: ref Xing et al., 2017, read-out: IC50, inhibitory action on KB tumor cells; cited from earlier work
smiles,measurement,setting,value
"Nc1nc2[nH]c(CC(=O)NCC(=O)N[C@@H](CCC(=O)O)C(=O)O)cc2c(=O)[nH]1 [glytrexate, (S)-2-{2-[2-(2-amino-4-oxo-4,7-dihydro-3H-pyrrolo [2,3-d]pyrimidin-6-yl)-acetylamino]-acetylamino}-pentanedioic acid]",stability in artificial gastrointestinal fluid (in words),[1],did not remain stable
same,stability in human plasma compared with other matrices (in words),[2],more stable in human plasma than in human liver microsomes and artificial gastrointestinal fluid; also recorded: more stable in human plasma than in rat plasma and in human liver microsomes; also recorded: greatest amount of remaining glytrexate was found in human plasma
same,AUC(0-inf),[3]; intravenous 2 mg/kg,10200 ± 1710 ng·h/mL
same,Cmax,[3]; intravenous 2 mg/kg,17600 ± 767 ng/mL
same,half-life,[3]; intravenous 2 mg/kg,2.78 ± 0.26 h
same,AUC,[3]; intravenous 2 mg/kg,10200 ± 1710 ng·h/mL
same,MRT last,[3]; intravenous 2 mg/kg,0.91 ± 0.05 h
same,AUC(0-inf),[3]; oral 12.5 mg/kg,370 ± 26 ng·h/mL
same,Cmax,[3]; oral 12.5 mg/kg,107 ± 12.1 ng/mL
same,half-life,[3]; oral 12.5 mg/kg,2.15 ± 0.16 h
same,bioavailability,"[3]; oral 12.5 mg/kg vs intravenous 2 mg/kg, read-out: F (bioavailability)",0.57 ± 0.08%
same,AUC,[3]; oral 12.5 mg/kg,362 ± 24.6 ng·h/mL
same,MRT last,[3]; oral 12.5 mg/kg,3.12 ± 0.14 h
same,AUC(0-inf),[3]; oral 25 mg/kg,750 ± 30.2 ng·h/mL
same,Cmax,[3]; oral 25 mg/kg,496 ± 19.8 ng/mL
same,half-life,[3]; oral 25 mg/kg,2.25 ± 0.093 h
same,bioavailability,"[3]; oral 25 mg/kg vs intravenous 2 mg/kg, read-out: F (bioavailability)",0.59 ± 0.06%
same,AUC,[3]; oral 25 mg/kg,750 ± 30.2 ng·h/mL
same,MRT last,[3]; oral 25 mg/kg,2.95 ± 0.16 h
same,AUC(0-inf),[3]; oral 50 mg/kg,2960 ± 190 ng·h/mL
same,Cmax,[3]; oral 50 mg/kg,1290 ± 109 ng/mL
same,half-life,[3]; oral 50 mg/kg,2.66 ± 0.15 h
same,bioavailability,"[3]; oral 50 mg/kg vs intravenous 2 mg/kg, read-out: F (bioavailability)",1.15 ± 0.07%
same,AUC,[3]; oral 50 mg/kg,2960 ± 189 ng·h/mL
same,MRT last,[3]; oral 50 mg/kg,3.16 ± 0.096 h
same,bioavailability,"[3]; oral dose range 12.5–50 mg/kg, read-out: oral bioavailability",0.57 to 1.15%
same,CL/F,"[3]; 12.5 mg/kg, oral 12.5 mg/kg",565 mL/min/kg
same,Tmax,"[3]; 12.5 mg/kg, oral 12.5 mg/kg, read-out: Tmax",0.5 h
same,CL/F,"[3]; 25 mg/kg, oral 25 mg/kg",556 mL/min/kg
same,Tmax,"[3]; 25 mg/kg, oral 25 mg/kg, read-out: Tmax",0.5 h
same,CL/F,"[3]; 50 mg/kg, oral 50 mg/kg",282 mL/min/kg
same,Tmax,"[3]; 50 mg/kg, oral 50 mg/kg, read-out: Tmax",0.5 h
same,Tmax,"[3]; 50 mg/kg, single oral administration 12.5, 25 and 50 mg/kg, read-out: Tmax (time of peak blood concentration)",0.5 h
same,intravenous AUC of glytrexate relative to pemetrexed,[3]; glytrexate 2 mg/kg vs pemetrexed 10 mg/kg,approximately 1.63 fold
same,intravenous T1/2 of glytrexate relative to pemetrexed,[3]; intravenous,approximately 5 fold
same,Cl/F,[3]; intravenous 2 mg/kg,3.33 ± 0.5 mL/min/kg
same,V/F,[3]; intravenous 2 mg/kg,0.80 ± 0.15 L/kg
same,Cl/F,"[3]; oral 12.5 mg/kg, 12.5 mg/kg",564.8 ± 42.8 mL/min/kg
same,V/F,"[3]; oral 12.5 mg/kg, 12.5 mg/kg",104.724 ± 6.709 L/kg and 104.72 ± 6.71 L/kg
same,Cl/F,"[3]; oral 25 mg/kg, 25 mg/kg",556.2 ± 22 mL/min/kg
same,V/F,"[3]; oral 25 mg/kg, 25 mg/kg",108.42 ± 7.698 L/kg and 108.42 ± 7.70 L/kg
same,V/F,"[3]; oral 50 mg/kg, 50 mg/kg",64.832 ± 4.529 L/kg and 64.83 ± 4.53 L/kg
same,time of highest plasma concentration,[3]; single i.v. injection 2 mg/kg,0.03 h
same,IC50,[4],0.078 nM
